According to patent publication US10774071B2, “PD-1/PD-L1 inhibitors” (Gilead Sciences, Inc., priority 2018, dated 2020):

How the values were obtained:
PD-L1 = PD-L1 (Homo sapiens (Human), UniProt Q9NZQ7); assay: PD-L1/PD-L1 dimerization biochemical protein-protein interaction assay (ALPHA); type: binding; settings: 0.5 nM His tagged PD-L1 and 0.5 nM FLAG tagged PD-L1, Table 4A, read-out: AC50 PDL1 Dimer 1 nM
PD-1/PD-L1 = PD-1/PD-L1 (Homo sapiens (Human), UniProt Q9NZQ7); assay: PD-1/PD-L1 biochemical protein-protein interaction assay (ALPHA); type: binding; settings: 0.3 nM His tagged PD-L1, 2.5 nM biotinylated Fc-PD-1, readings of 0.064 nM are equal to or less than 0.064 nM, read-out: IC50 PD-L1-PD1
Sequence of PD-1/PD-L1 (Q9NZQ7 19-238): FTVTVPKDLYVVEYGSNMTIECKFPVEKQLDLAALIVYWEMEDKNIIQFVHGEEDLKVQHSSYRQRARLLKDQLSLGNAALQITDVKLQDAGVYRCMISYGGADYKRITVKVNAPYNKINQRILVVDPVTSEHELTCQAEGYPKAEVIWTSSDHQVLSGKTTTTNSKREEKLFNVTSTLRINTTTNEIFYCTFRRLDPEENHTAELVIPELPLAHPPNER
Description: Compounds were tested in biochemical protein-protein interaction assays to determine if they can specifically block the interaction between the extracellular domains of PD-1/PD-L1 or CTLA/CD80. Binding of the protein pairs is measured using a bead based Amplified Luminescent Proximity Homogeneous Assay (ALPHA) platform. […] Final protein concentration in the assays were 0.3 nM (His tagged PD-L1), 2.5 nM (biotinylated Fc-PD-1), 1 nM (His tagged CTLA4) and 1 nM (biotinylated CD80).

Sequence of PD-L1 (Q9NZQ7 19-238): as above
Sequence of PD-L1 (Q9NZQ7 19-238): as above

AC50 (PD-L1) | IC50 (PD-1/PD-L1) | Structure (SMILES)
76.6 nM | ≤ 0.064 nM | COc1nc(-c2cccc(-c3cccc4c3CC[C@@H]4Nc3nc(OC)c(CN4CC(C(=O)O)C4)cc3C(F)(F)F)c2Cl)ccc1CN1CC(C)(O)C1 [A-54]
13.2 nM | ≤ 0.064 nM | COc1nc(-c2cccc(-c3cccc4c3CC[C@@H]4Nc3nc(OC)c(CN4CC(C(=O)O)C4)cc3C(F)(F)F)c2Cl)ccc1CNC[C@@H]1CCC(=O)N1 [A-55]
11.8 nM | ≤ 0.064 nM | COc1nc(-c2cccc(-c3cccc4c3CC[C@@H]4Nc3nc(OC)c(CN4CCC5CC4(C(=O)O)C5)cc3C(F)(F)F)c2Cl)ccc1CN1CC(C)(O)C1 [A-56]
29.6 nM | ≤ 0.064 nM | COc1nc(-c2cccc(-c3cccc4c3CC[C@@H]4Nc3nc(OC)c(CN4CC(C(=O)O)C4)cc3C(F)(F)F)c2Cl)ccc1CN[C@H]1C[C@](C)(O)C1 [A-57]
9.38 nM | ≤ 0.064 nM | COc1nc(-c2cccc(-c3cccc4c3CC[C@@H]4Nc3nc(OC)c(CN4CCC5CC4(C(=O)O)C5)cc3C(F)(F)F)c2Cl)ccc1CN[C@H]1C[C@](C)(O)C1 [A-58]
7.75 nM | ≤ 0.064 nM | COc1nc(-c2cccc(-c3cccc4c3CC[C@@H]4Nc3nc(OC)c(CN4CCC5CC4(C(=O)O)C5)cc3C(F)(F)F)c2Cl)ccc1CNC[C@@H]1CCC(=O)N1 [A-59]
45.4 nM | ≤ 0.064 nM | COc1nc(-c2cccc(-c3cccc4c3CC[C@@H]4Nc3nc(OC)c(CN4CC5(C(=O)O)CCC4CC5)nc3C(F)(F)F)c2Cl)ccc1CNC[C@H]1CCC(=O)N1 [A-62]
34.4 nM | ≤ 0.064 nM | COc1nc(-c2cccc(-c3cccc4c3CC[C@@H]4Nc3nc(OC)c(CN[C@@H](C)C(=O)O)cc3C(F)(F)F)c2Cl)ccc1CN1CC(C)(O)C1 [A-63]
8.04 nM | ≤ 0.064 nM | COc1nc(-c2cccc(-c3cccc4c3CC[C@@H]4Nc3nc(OC)c(CN[C@@H](C)C(=O)O)cc3C(F)(F)F)c2Cl)ccc1CNC[C@@H]1CCC(=O)N1 [A-64]
14.7 nM | ≤ 0.064 nM | COc1nc(-c2cccc(-c3cccc4c3CC[C@@H]4Nc3nc(OC)c(CNCC(=O)O)cc3C(F)(F)F)c2Cl)ccc1CNC[C@@H]1CCC(=O)N1 [A-65]
19.6 nM | ≤ 0.064 nM | COc1nc(-c2cccc(-c3cccc4c3CC[C@@H]4Nc3nc(OC)c(CN[C@@H](C)C(=O)O)cc3C(F)(F)F)c2Cl)ccc1CN[C@H]1C[C@](C)(O)C1 [A-66]
32.9 nM | ≤ 0.064 nM | COc1nc(-c2cccc(-c3cccc4c3CC[C@@H]4Nc3nc(OC)c(CNCC(=O)O)cc3C(F)(F)F)c2Cl)ccc1CN[C@H]1C[C@](C)(O)C1 [A-67]
83.7 nM | ≤ 0.064 nM | COc1nc(-c2cccc(-c3cccc4c3CC[C@@H]4Nc3nc(OC)c(CN4CC[C@@](C)(C(=O)O)C4)nc3C(F)(F)F)c2Cl)ccc1CN1CC(C)(O)C1 [A-68]
15.6 nM | ≤ 0.064 nM | COc1nc(-c2cccc(-c3cccc4c3CC[C@@H]4Nc3nc(OC)c(CN4CCC5CC4(C(=O)O)C5)nc3C(F)(F)F)c2Cl)ccc1CNC[C@@H]1CCC(=O)N1 [A-70]
52.4 nM | ≤ 0.064 nM | COc1nc(-c2cccc(-c3cccc4c3CC[C@@H]4Nc3nc(OC)c(CN4CC(C)(O)C4)nc3C(F)(F)F)c2Cl)ccc1CN1CC[C@@H](C(=O)O)C1 [A-71]
13.4 nM | ≤ 0.064 nM | COc1nc(-c2cccc(-c3cccc4c3CC[C@@H]4Nc3nc(OC)c(CN[C@@H](C)C(=O)O)nc3C(F)(F)F)c2Cl)ccc1CN1CC(O)C1 [A-72]

AC50 (PD-L1) | IC50 (PD-1/PD-L1) | Structure (SMILES)
15.7 nM | ≤ 0.064 nM | COc1nc(-c2cccc(-c3cccc4c3CC[C@@H]4Nc3nc(OC)c(CNCC(=O)O)nc3C(F)(F)F)c2Cl)ccc1CN1CC(O)C1 [A-73]
9.07 nM | ≤ 0.064 nM | COc1nc(-c2cccc(-c3cccc4c3CC[C@@H]4Nc3nc(OC)c(CN[C@@H](C)C(=O)O)nc3C(F)(F)F)c2Cl)ccc1CN1CC(C)(O)C1 [A-74]
18.1 nM | ≤ 0.064 nM | COc1nc(-c2cccc(-c3cccc4c3CC[C@@H]4Nc3nc(OC)c(CNCC(=O)O)nc3C(F)(F)F)c2Cl)ccc1CN1CC(C)(O)C1 [A-75]
30.2 nM | ≤ 0.064 nM | COc1nc(-c2cccc(-c3cccc4c3CC[C@@H]4Nc3nc(OC)c(CN4C[C@H](C)C[C@H]4C(=O)O)nc3C(F)(F)F)c2Cl)ccc1CNC[C@@H]1CCC(=O)N1 [A-76]
26.6 nM | ≤ 0.064 nM | CCC1C(C(=O)O)CCN1Cc1nc(C(F)(F)F)c(N[C@H]2CCc3c(-c4cccc(-c5ccc(CNC[C@@H]6CCC(=O)N6)c(OC)n5)c4Cl)cccc32)nc1OC (some centres unmarked) [A-77]
13.5 nM | ≤ 0.064 nM | COc1nc(-c2cccc(-c3cccc4c3CC[C@@H]4Nc3nc(OC)c(CN4C[C@H](C)C[C@H]4C(=O)O)cc3C(F)(F)F)c2Cl)ccc1CNC[C@@H]1CCC(=O)N1 [A-78]
21.4 nM | ≤ 0.064 nM | CCC1C(C(=O)O)CCN1Cc1cc(C(F)(F)F)c(N[C@H]2CCc3c(-c4cccc(-c5ccc(CNC[C@@H]6CCC(=O)N6)c(OC)n5)c4Cl)cccc32)nc1OC (some centres unmarked) [A-79]
19.9 nM | ≤ 0.064 nM | COc1nc(-c2cccc(-c3cccc4c3CC[C@@H]4Nc3nc(OC)c(CN4C[C@@H]5CC[C@H]4[C@@H]5C(=O)O)nc3C(F)(F)F)c2Cl)ccc1CNC[C@@H]1CCC(=O)N1 [A-80]
23.1 nM | ≤ 0.064 nM | COc1nc(-c2cccc(-c3cccc4c3CC[C@@H]4Nc3nc(OC)c(CN4CC5CC(C(=O)O)C4C5)nc3C(F)(F)F)c2Cl)ccc1CNC[C@@H]1CCC(=O)N1 (some centres unmarked) [A-81]
84.9 nM | 0.14 nM | COC(=O)C12CCC(CC1)N(Cc1nc(C(F)(F)F)c(N[C@H]3CCc4c(-c5cccc(-c6ccc(CNC[C@@H]7CCC(=O)N7)c(OC)n6)c5Cl)cccc43)nc1OC)C2 [A-82]
23.6 nM | ≤ 0.064 nM | COc1nc(-c2cccc(-c3cccc4c3CC[C@@H]4Nc3nc(OC)c(CN[C@@H](C)C(=O)O)cc3C(F)(F)F)c2Cl)ccc1CNC[C@H]1C[C@](C)(O)C1 [A-83]
31.8 nM | ≤ 0.064 nM | COc1nc(-c2cccc(-c3cccc4c3CC[C@@H]4Nc3nc(OC)c(CNCC(=O)O)cc3C(F)(F)F)c2Cl)ccc1CNC[C@H]1C[C@](C)(O)C1 [A-84]
42.5 nM | ≤ 0.064 nM | COc1nc(-c2cccc(-c3cccc4c3CC[C@@H]4Nc3nc(OC)c(CNC4(C(=O)O)CC4)nc3C(F)(F)F)c2Cl)ccc1CNC[C@H]1C[C@](C)(O)C1 [A-85]
29.2 nM | ≤ 0.064 nM | COc1nc(-c2cccc(-c3cccc4c3CC[C@@H]4Nc3nc(OC)c(CN[C@@H](C)C(=O)O)nc3C(F)(F)F)c2Cl)ccc1CNC[C@H]1C[C@](C)(O)C1 [A-86]
22.3 nM | ≤ 0.064 nM | COc1nc(-c2cccc(-c3cccc4c3CC[C@@H]4Nc3nc(OC)c(CNCC(=O)O)nc3C(F)(F)F)c2Cl)ccc1CNC[C@H]1C[C@](C)(O)C1 [A-87]

Structure (SMILES) | AC50 (PD-L1) | IC50 (PD-1/PD-L1)
COc1nc(-c2cccc(-c3cccc4c3CC[C@@H]4Nc3nc(OC)c(CN4C5CCC4(C(=O)O)CC5)cc3C(F)(F)F)c2Cl)ccc1CN1CC(C)(O)C1 [A-60] | 13.9 nM | ≤ 0.064 nM
COc1nc(-c2cccc(-c3cccc4c3CC[C@@H]4Nc3nc(OC)c(CN4C5CCC4(C(=O)O)CC5)cc3C(F)(F)F)c2Cl)ccc1CNC[C@@H]1CCC(=O)N1 [A-61] | 10.6 nM | ≤ 0.064 nM
COc1nc(-c2cccc(-c3cccc4c3CC[C@@H]4Nc3nc(OC)c(CN4C5CCC4(C(=O)O)CC5)nc3C(F)(F)F)c2Cl)ccc1CNC[C@@H]1CCC(=O)N1 [A-69] | 5.27 nM | ≤ 0.064 nM
